Experimental data published in patent publication US5736555A, “Heterocyclic compounds and their use as angiotensin antagonists” (Takeda Chemical Industries, Ltd., priority 1991, dated 1998).

Assays:
[1] = test system: A-II-induced pressor action; experiment: Inhibitory Effect of the Compound of the Present Invention on Pressor Action of AII (p.o.); type: in vivo, rat (Jcl: SD); details: rat, AII 100 ng/kg i.v.; for inhibition in vivo at 1 mg/kg / inhibition in vivo at 3 mg/kg: po, read-out: Pressor Response to A II (p.o.), percent inhibition class; for inhibition in vivo at 3 mg/kg: 3 mg/kg p.o.
Description: Inhibitory Effect of the Compound of the Present Invention on Pressor Action of AII
Jcl: SD rat (9 week old, male) were employed. On the day prior to the experiment, these animals were applied with cannulation into the femoral artery and vein under anesthesia with pentobarbital Na. These animals were fasted but allowed to free access to drinking water until the experiment was started. Just on the day of conducting the experiment, the artery cannula was connected with a blood-pressure transducer, and the average blood pressure was recorded by means of polygraph. Before administration of the drug, the pressor action due to intravenous administration of AII (100 ng/kg) as the control was determined. The drugs were orally administered, then, at each point of the determination, A-II was administered intravenously, and the pressor action was similarly determined. By comparing the pressor action before and after administration of the drug, the percent inhibition by the drug on A-II-induced pressor action was evaluated.

[2] = target: T1, angiotensin II (A-II) receptor (Bos taurus, UniProt P25104); experiment: Inhibitory Effect of Binding of Angiotensin-II to Angiotensin Receptor (radioreceptor assay, 125I-AII, adrenal cortex membrane fraction); details: bovine adrenal cortex membrane, room temperature, one hour
T1 construct: An A-II receptor membrane fraction was prepared from bovine adrenal cortex; from tissue; host or cells: bovine adrenal cortex membrane fraction
T1 sequence (P25104 1-359): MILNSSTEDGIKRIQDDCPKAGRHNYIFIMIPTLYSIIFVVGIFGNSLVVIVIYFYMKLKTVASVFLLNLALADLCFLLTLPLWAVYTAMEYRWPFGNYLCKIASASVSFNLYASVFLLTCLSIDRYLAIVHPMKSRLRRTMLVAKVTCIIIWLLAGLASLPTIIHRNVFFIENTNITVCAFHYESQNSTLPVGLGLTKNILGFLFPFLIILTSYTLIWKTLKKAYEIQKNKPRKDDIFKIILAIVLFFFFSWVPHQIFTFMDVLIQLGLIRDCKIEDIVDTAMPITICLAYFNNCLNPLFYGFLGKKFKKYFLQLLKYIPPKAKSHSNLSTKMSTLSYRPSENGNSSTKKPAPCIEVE
Method: Inhibitory Effect of Binding of Angiotensin-II to Angiotensin Receptor
An A-II receptor membrane fraction was prepared from bovine adrenal cortex.

[3] = reported in literature; cited from earlier work

Compound | inhibition at 1 µM ([2]; 10^-6 M) [%] | inhibition at 0.1 µM ([2]; 10^-7 M) [%] | inhibition in vivo at 1 mg/kg ([1]; 1 mg/kg p.o.) [%] | inhibition in vivo at 3 mg/kg [1] [%] | angiotensin II antagonist activity [3] | Pressor Response to A II (p.o.), percent inhibition class ([1]; 1 mg/kg p.o.) | Radioreceptor assay % inhibition ([2]; 10^-6 M) [%] | Radioreceptor assay % inhibition ([2]; 10^-7 M) [%]
CCOc1nc2cccc(C(=O)OC)c2n1Cc1ccc(-c2ccccc2C2=NOS(=O)N2)cc1 (centres unmarked) [Example 3, Methyl 2-ethoxy-1-[[2'-(2-oxo-3H-1,2,3,5-oxathiadiazol-4-yl)biphenyl]methyl]benzimidazole-7-carboxylate] | 75 | 33 |  | > 70 |  |  |  | 
CCOc1nc2cccc(C(=O)OC(C)OC(=O)OC3CCCCC3)c2n1Cc1ccc(-c2ccccc2-c2nc(=O)o[nH]2)cc1 (centres unmarked) [Example 4, 1-(Cyclohexyloxycarbonyloxy)ethyl 2-ethoxy-1-[[2'-(2,5-dihydro-5-oxo-1,2,4-oxadiazol-3-yl)biphenyl-4-yl]methyl]benzimidazole-7-carboxylate] | 44 | 17 | > 70 |  |  |  |  | 
COc1nc2c(C)sc(C(=O)O)c2n1Cc1ccc(-c2ccccc2-c2nc(=O)o[nH]2)cc1 [Example 9, 2-Methoxy-1-[[2'-(2,5-dihydro-5-oxo-1,2,4-oxadiazol-3-yl)biphenyl-4-yl]methyl]-4-methylthieno[3,4-d]imidazole-6-carboxylic Acid] | 55 | 19 | > 70 | > 70 |  |  |  | 
CCOc1nc2c(C)sc(C(=O)O)c2n1Cc1ccc(-c2ccccc2-c2nc(=O)o[nH]2)cc1 [Example 10, 2-Ethoxy-1-[[2'-(2,5-dihydro-5-oxo-1,2,4-oxadiazol-3-yl)biphenyl-4-yl]methyl]-4-methylthieno[3,4-d]imidazole-6-carboxylic Acid] | 51 | 17 | > 70 |  |  |  |  | 
CCNc1nc2c(C)sc(C(=O)O)c2n1Cc1ccc(-c2ccccc2-c2nc(=O)o[nH]2)cc1 [Example 12, 2-Ethylamino-1-[[2'-(2,5-dihydro-5-oxo-1,2,4-oxadiazol-3-yl)biphenyl-4-yl]methyl]-4-methylthieno[3,4-d]imidazole-6-carboxylic Acid] | 78 | 46 | < 50 |  |  |  |  | 
O=C(O)c1cccc2nc(C3CC3)n(Cc3ccc(-c4ccccc4-c4noc(=O)[nH]4)cc3)c12 [Example 32, 2-Cyclopropyl-1-[[2'-(2,5-dihydro-5-oxo-1,2,4-oxadiazol-3-yl)biphenyl-4-yl]methyl]benzimidazole-7-carboxylic acid] | 75 | 27 | > 70 |  |  |  |  | 
CCCCc1nc2cccc(C(=O)O)c2n1Cc1ccc(-c2ccccc2-c2noc(=O)[nH]2)cc1 [Example 33, 2-Butyl-1-[[2'-(2,5-dihydro-5-oxo-1,2,4-oxadiazol-3-yl)-biphenyl-4-yl]methyl]benzimidazole-7-carboxylic acid] | 70 | 23 | 50 to 70 |  |  |  |  | 
CCCOc1nc2cccc(C(=O)O)c2n1Cc1ccc(-c2ccccc2-c2nc(=O)o[nH]2)cc1 [Example 36, 1-[[2'-(2,5-Dihydro-5-oxo-1,2,4-oxadiazol-3-yl)biphenyl-4-yl]methyl]-2-propoxybenzimidazole-7-carboxylic acid] | 60 | 18 | > 70 |  |  |  |  | 
CNCC(=O)N[C@@H](CCCN=C(N)N)C(=O)N[C@H](C(=O)N[C@@H](Cc1ccc(O)cc1)C(=O)N[C@H](C(=O)N[C@@H](Cc1cnc[nH]1)C(=O)N1CCC[C@H]1C(=O)N[C@@H](C)C(=O)O)C(C)C)C(C)C [saralasin] |  |  |  |  | potent |  |  | 
Acetoxymethyl 1-[[2'-(4-acetoxymethyl-4,5-dihdyro-5-oxo-4H-1,2,4-oxadiazol-3-yl)biphenyl-4-yl]methyl]-2-ethoxybenzimidazole-7-carboxylate [Example 13] |  |  |  |  |  | +++ (+++ ≥ 70%) | 69 | 31

Now from value to compound, other results behind:

inhibition at 1 µM ([2]; 10^-6 M) [%] | inhibition at 0.1 µM ([2]; 10^-7 M) [%] | Compound | inhibition in vivo at 1 mg/kg ([1]; 1 mg/kg p.o.) [%] | inhibition in vivo at 3 mg/kg [1] [%] | angiotensin II antagonist activity [3] | Pressor Response to A II (p.o.), percent inhibition class ([1]; 1 mg/kg p.o.) | Radioreceptor assay % inhibition ([2]; 10^-6 M) [%] | Radioreceptor assay % inhibition ([2]; 10^-7 M) [%]
79 | 34 | CCOc1nc2cccc(C(=O)O)c2n1Cc1ccc(-c2ccccc2-c2nc(=O)o[nH]2)cc1 [Example 1, 2-Ethoxy-1-[[2'-(2,5-dihydro-5-oxo-1,2,4-oxadiazol-3-yl)biphenyl-4-yl]methyl]benzimidazole-7-carboxylic Acid] | > 70 | > 70 |  |  |  | 
40 | 8 | CCSc1nc2c(C)sc(C(=O)O)c2n1Cc1ccc(-c2ccccc2-c2noc(=O)[nH]2)cc1 [Example 8, 2-Ethylthio-1-[[2'-(2,5-dihydro-5-oxo-1,2,4-oxadiazol-3-yl)biphenyl-4-yl]methyl]-4-methylthieno[3,4-d]imidazole-6-carboxylic Acid] | > 70 |  |  |  |  | 
41 |  | CCCOc1nc2c(C)sc(C(=O)O)c2n1Cc1ccc(-c2ccccc2-c2nc(=O)o[nH]2)cc1 [Example 11, 1-[2'-(2,5-Dihydro-5-oxo-1,2,4-oxadiazol-3-yl)biphenyl-4-yl]methyl-4-methyl-2-n-propoxythieno[3,4-d]imidazole-6-carboxylic Acid] | > 70 |  |  |  |  | 
77 | 35 | CCCc1nc2cccc(C(=O)O)c2n1Cc1ccc(-c2ccccc2-c2nc(=O)o[nH]2)cc1 [Example 30, 1-[[2'-(2,5-Dihydro-5-oxo-1,2,4-oxadiazol-3-yl)biphenyl-4-yl]methyl]-2-propylbenzimidazole-7-carboxylic Acid] | > 70 |  |  |  |  | 
79 | 41 | CCc1nc2cccc(C(=O)O)c2n1Cc1ccc(-c2ccccc2-c2nc(=O)o[nH]2)cc1 [Example 31, 2-Ethyl-1-[[2'-(2,5-dihydro-5-oxo-1,2,4-oxadiazol-3-yl)-biphenyl-4-yl]methyl]benzimidazole-7-carboxylic Acid] | > 70 |  |  |  |  | 
79 | 40 | COC(=O)c1cccc2nc(C3CC3)n(Cc3ccc(-c4ccccc4-c4nc(=O)o[nH]4)cc3)c12 [Example 32c, Methyl 2-cyclopropyl-1-[[2'-(2,5-dihydro-5-oxo-1,2,4-oxadiazol-3-yl)biphenyl-4-yl]methyl]-benzimidazole-7-carboxylate] | > 70 |  |  |  |  | 
79 | 38 | COc1nc2cccc(C(=O)O)c2n1Cc1ccc(-c2ccccc2-c2noc(=O)[nH]2)cc1 [Example 35, 1-[[2'-(2,5-Dihydro-5-oxo-1,2,4-oxadiazol-3-yl)biphenyl-4-yl]methyl]-2-methoxybenzimidazole-7-carboxylic acid] | > 70 |  |  |  |  | 
94 | 80 | CCc1nc2c(C)cc(C(=O)O)nc2n1Cc1ccc(-c2ccccc2-c2nc(=O)o[nH]2)cc1 [Example 56, 2-Ethyl-3-[[2'-(2,5-dihydro-5-oxo-1,2,4-oxadiazol-3-yl)biphenyl-4-yl]methyl]-7-methylimidazo[4,5-b]pyridine-5-carboxylic acid] | > 70 |  |  |  |  | 
84 | 43 | CCOc1nc2cccc(C(=O)OC)c2n1Cc1ccc(-c2ccccc2-c2nc(=O)s[nH]2)cc1 [Example 60, Methyl 2-ethoxy-1-[[2'-(2,5-dihydro-5-oxo-1,2,4-thiadiazol-3-yl)biphenyl-4-yl]methyl]benzimidazole-7-carboxylate] | > 70 |  |  |  |  | 
